In the CheMixHub viscosity set:
“And” between values parts separate entries of the source, which are not always exact repeats. Identical values can stand only once.

Test: xn = mol fraction of the nth substance listed

CCCCCCC(C)O (stereo unspecified) + Brc1ccccc1
viscosity [mPa·s], 101 kPa
Details	298.15 K	303.15 K
x2 = 0.0495	5.76	4.559
x2 = 0.1184	4.748	3.795
x2 = 0.1814	4.027	3.25
x2 = 0.2506	3.367	2.769
x2 = 0.2943	3.034	2.532
x2 = 0.3711	2.576	2.178
x2 = 0.4297	2.285	1.961
x2 = 0.5077	1.983	1.738
x2 = 0.5834	1.766	1.554
x2 = 0.6524	1.587	1.418
x2 = 0.7315	1.41	1.275
x2 = 0.8025	1.3	1.174
x2 = 0.8722	1.192	1.093
x2 = 0.9483	1.107	1.03

CCCCCCC(C)O (stereo unspecified) + C1CCCCC1
303.15 K, 101.33 kPa
Details	viscosity [mPa·s]
x1 = 0.0999	0.9208
x1 = 0.2048	1.086
x1 = 0.303	1.317
x1 = 0.3982	1.601
x1 = 0.4667	1.847
x1 = 0.5235	2.072
x1 = 0.5347	2.124
x1 = 0.6961	2.908
x1 = 0.7992	3.516
x1 = 0.899	4.161

c1c[nH]cn1 + CC(=O)O
101 kPa, x1 = 0.5
Details	viscosity [mPa·s]
303.15 K	54
323.15 K	20

NCCNCCNCCN + CC(C)(N)CO
viscosity [mPa·s], 101 kPa
Details	x1 = 0.0971	x1 = 0.2071	x1 = 0.289	x1 = 0.3787	x1 = 0.4776	x1 = 0.5872	x1 = 0.7092	x1 = 0.8458	x1 = 0.9205
303.15 K	93.54	86.24	80.73	74.33	67.05	58.76	49.22	38.21	32.14
313.15 K	45.15	42.38	40.21	37.61	34.58	30.81	26.45	21.3	18.55
323.15 K	23.64	22.83	22.02	20.95	19.54	17.81	15.76	13.05	11.61

CCCCCCCCCC(=O)O + CC(C)[C@@H]1CC[C@@H](C)C[C@H]1O
viscosity [mPa·s]
Details	293.15 K	298 K	298.15 K	303.15 K	308.15 K	313.15 K	318.15 K	323.15 K
100 kPa, x1 = 0.333	28.37	–	21.15	16.15	12.59	10	8.08	6.63
100 kPa, x1 = 0.4	24.68	–	18.85	14.7	11.68	9.43	7.73	6.42
100 kPa, x1 = 0.5	22	–	17.5	13.5	11	9	7.5	6.3
101 kPa, x2 = 0.333	–	16.3	–	–	–	–	–	–

c1ccncc1 + CC(O)CO
101 kPa
Details	viscosity [mPa·s]
293.15 K, x1 = 0.2999	15.55
303.15 K, x1 = 0.8	1.425
308.15 K, x1 = 0.7001	1.795
318.15 K, x1 = 0.4	3.855

c1ccncc1 + CCC(C)=O
100 kPa
Details	viscosity [mPa·s]
308.15 K, x1 = 0.1006	0.3835
313.15 K, x1 = 0.597	0.5265
323.15 K, x1 = 0.4004	0.4095

CCOC(=O)C(Br)CC (stereo unspecified) + CCCCCC
303.15 K, 101 kPa
Details	viscosity [mPa·s]
x1 = 0.1972	0.3726
x1 = 0.3889	0.5074
x1 = 0.4924	0.6029
x1 = 0.5981	0.7246
x1 = 0.7949	1.032

CCCCCCC(C)O (stereo unspecified) + CCCCCCCC
298.15 K, 101 kPa
Details	viscosity [mPa·s]
x2 = 0.0487	5.956
x2 = 0.1002	5.301
x2 = 0.1498	4.654
x2 = 0.2006	3.998
x2 = 0.2516	3.364
x2 = 0.3003	2.796
x2 = 0.3538	2.228
x2 = 0.4003	1.79
x2 = 0.4466	1.411
x2 = 0.5001	1.049
x2 = 0.5517	0.778
x2 = 0.6002	0.59
x2 = 0.6539	0.454
x2 = 0.6994	0.39
x2 = 0.7449	0.366
x2 = 0.8	0.376
x2 = 0.8465	0.402
x2 = 0.9003	0.434
x2 = 0.9521	0.441

CCCCCCC(C)O (stereo unspecified) + CCCCCCCCCCCC
298.15 K, 101 kPa
Details	viscosity
x1 = 0.0003	1.337 mPa·s
x2 = 0.0554	5.513 mPa·s and 5.51 mPa·s
x2 = 0.0999	4.916 mPa·s and 4.92 mPa·s
x2 = 0.1554	4.254 mPa·s and 4.25 mPa·s
x2 = 0.1998	3.786 mPa·s and 3.79 mPa·s
x2 = 0.2555	3.272 mPa·s and 3.27 mPa·s
x2 = 0.2998	2.916 mPa·s and 2.92 mPa·s
x2 = 0.3554	2.532 mPa·s and 2.53 mPa·s
x2 = 0.3998	2.27 mPa·s and 2.27 mPa·s
x2 = 0.4554	1.995 mPa·s and 2 mPa·s
x2 = 0.4999	1.813 mPa·s and 1.81 mPa·s
x2 = 0.5555	1.627 mPa·s and 1.63 mPa·s
x2 = 0.5998	1.508 mPa·s and 1.51 mPa·s
x2 = 0.6555	1.391 mPa·s and 1.39 mPa·s
x2 = 0.6998	1.32 mPa·s and 1.32 mPa·s
x2 = 0.7554	1.253 mPa·s and 1.25 mPa·s
x2 = 0.7998	1.213 mPa·s and 1.21 mPa·s
x2 = 0.8555	1.176 mPa·s and 1.18 mPa·s
x2 = 0.8999	1.152 mPa·s and 1.15 mPa·s
x2 = 0.9555	1.124 mPa·s and 1.12 mPa·s

CCCCCCC(C)O (stereo unspecified) + CCCCCCCCCCCCCC
298.15 K, 101 kPa
Details	viscosity [mPa·s]
x1 = 0.0003	2.081
x2 = 0.0555	5.619
x2 = 0.0999	5.163
x2 = 0.1555	4.632
x2 = 0.1998	4.238
x2 = 0.2554	3.786
x2 = 0.2998	3.455
x2 = 0.3555	3.081
x2 = 0.3999	2.813
x2 = 0.4554	2.519
x2 = 0.4999	2.314
x2 = 0.5555	2.098
x2 = 0.5998	1.957
x2 = 0.6554	1.82
x2 = 0.7	1.741
x2 = 0.7555	1.683
x2 = 0.8	1.668
x2 = 0.8555	1.688
x2 = 0.9	1.736
x2 = 0.9553	1.835

CCCCCCCCCC(=O)O + CCCCCCCCCCCCCC
100 kPa, x2 = 0.8601
Details	viscosity [mPa·s]
298.2 K	2.37
308.2 K	1.9
318.2 K	1.54

CCCCCCCCCC(=O)O + CCCCCCCCCCCCCCC
100 kPa, x2 = 0.8127
Details	viscosity [mPa·s]
298.2 K	2.95
308.2 K	2.29
318.2 K	1.83

CCCCCCCCCC(=O)O + CCCCCCCCCCCCCCCC
100 kPa, x2 = 0.6321
Details	viscosity [mPa·s]
298.2 K	4.1
308.2 K	3.09
318.2 K	2.41

CCCCCCCCCC(=O)O + CCCCCCCCCCCCCCCCC
100 kPa, x2 = 0.5591
Details	viscosity [mPa·s]
298.2 K	4.83
308.2 K	3.6
318.2 K	2.77

O=C(c1ccccc1)c1ccccc1 + CCCCCOC(C)=O
298.15 K, 101 kPa
Details	viscosity [mPa·s]
x1 = 0.0417	0.8506
x1 = 0.0472	0.8646

c1c[nH]cn1 + CCCC[N+](CCCC)(CCCC)CCCC.[Br-]
101.3 kPa, x2 = 0.3
Details	viscosity [mPa·s]
293.15 K	810
296.15 K	540
303.15 K	314
313.15 K	144.8
323.15 K	75

c1ccncc1 + CCCCn1cc[n+](C)c1.F[B-](F)(F)F
Details	viscosity [mPa·s]
298.15 K, 101 kPa, x1 = 0.1059	81.9

c1ccncc1 + CCCO
101 kPa
Details	viscosity [mPa·s]
303.15 K, x1 = 0.2999	1.165
303.15 K, x1 = 0.5	0.9865
308.15 K, x1 = 0.2999	1.065
313.15 K, x1 = 0.1001	1.205
323.15 K, x1 = 0.3998	0.7875

NCCNCCNCCN + CCO
313.15 K, 100 kPa
Details	viscosity [mPa·s]
x1 = 0.02	0.94
x1 = 0.034	1.1
x1 = 0.073	1.47
x1 = 0.17	2.67

c1ccncc1 + CCO
298.15 K, 101 kPa
Details	viscosity [mPa·s]
x1 = 0.2992	1.034
x1 = 0.4997	0.9591
x1 = 0.6607	0.8792
x1 = 0.7996	0.8773

CCCCCCn1cc[n+](C)c1.[Cl][Fe-]([Cl])([Cl])[Cl] + CCOC(C)=O
viscosity [mPa·s], 101 kPa
Details	x1 = 0.093	x1 = 0.1851	x1 = 0.2815	x1 = 0.377	x1 = 0.4719	x1 = 0.5799	x1 = 0.6752	x1 = 0.7764	x1 = 0.8869
293.15 K	1.14	2.3	4.29	7.45	11.71	18.13	26.64	36.57	51.89
298.15 K	1.07	2.11	3.87	6.62	10.22	15.53	22.42	30.27	42.15
303.15 K	1.01	1.95	3.51	5.93	9.02	13.48	19.08	25.46	34.86
308.15 K	0.95	1.8	3.2	5.34	8.01	11.79	16.45	21.68	29.26
313.15 K	0.89	1.68	2.93	4.84	7.18	10.4	14.33	18.64	24.83
318.15 K	0.85	1.57	2.7	4.42	6.46	9.26	12.6	16.23	21.38
323.15 K	0.8	1.47	2.5	4.05	5.85	8.3	11.15	14.24	18.51

CC(O)CCO (stereo unspecified) + CN1CCCC1=O
308.15 K, 101 kPa
Details	viscosity [mPa·s]
x1 = 0.0282	1.736
x1 = 0.0582	1.864
x1 = 0.1089	2.153
x1 = 0.2015	2.678
x1 = 0.3004	3.197
x1 = 0.4043	4.211
x1 = 0.4985	6.742
x1 = 0.5972	9.628
x1 = 0.7036	14.66
x1 = 0.798	22.77
x1 = 0.9029	34.77
x1 = 0.94	43.52
x1 = 0.9796	51.25

CC(O)CCO (stereo unspecified) + CN(C)C=O
308.15 K, 101 kPa
Details	viscosity [mPa·s]
x1 = 0.0531	0.762
x1 = 0.1	0.87
x1 = 0.1985	1.178
x1 = 0.3069	1.688
x1 = 0.4018	2.399
x1 = 0.4993	3.462
x1 = 0.6107	6.621
x1 = 0.6844	9.795
x1 = 0.7882	17.12
x1 = 0.8916	28.94
x1 = 0.9544	38.83

c1ccncc1 + CO
298 K, 101.3 kPa
Details	viscosity [mPa·s]
x2 = 0.1249	0.85
x2 = 0.2338	0.82
x2 = 0.4192	0.763
x2 = 0.5695	0.714
x2 = 0.694	0.67
x2 = 0.7987	0.631
x2 = 0.8881	0.596
x2 = 0.9652	0.565

c1ccncc1 + CS(C)=O
viscosity [mPa·s], 101.3 kPa
Details	298.15 K	308.15 K	318.15 K
x1 = 0.041	1.859	1.535	1.246
x1 = 0.089	1.803	1.47	1.191
x1 = 0.18	1.6	1.318	1.098
x1 = 0.274	1.488	1.2	1.042
x1 = 0.369	1.38	1.13	0.972
x1 = 0.468	1.28	1.044	0.922
x1 = 0.569	1.185	0.984	0.858
x1 = 0.673	1.097	0.913	0.795
x1 = 0.779	1.029	0.849	0.753
x1 = 0.888	0.969	0.791	0.723
x1 = 0.943	0.975	0.76	0.715
